Measurements taken from US20060084704A1, “Methods and compositions for enhancing degradation of nuclear receptor transcription factors and uses thereof” (priority 2004, published 2006).

Legend:
LNCaP cells = assay: LNCaP growth assay (cell count); type: cell-based, human
Protocol: LNCaP cells express an endogenous mutant AR that is found in prostate cancer patients. This clinically relevant cell model was used to study JC9's effect in suppressing prostate cancer cell growth. Cells were plated at a density of 6.3×10^4 cells/well in 6-well tissue culture dishes. Two days later, the complete medium was aspired and 10% charcoal/dextran-treated (hormone depleted) serum-containing medium was added. Test compounds, JC9 and hydroxyflutamide (HF) were then added to the medium at a final concentration of 5 μM with or without 1 nM of DHT. For vehicle control, the same amount of DMSO was added. For the subsequent 5 days, the medium was aspired once per day, and fresh medium containing test compounds and/or DHT was added. At designated times, a portion of cells was harvested by trypsinization, and cell count was performed using a hemacytometer.

[1] = system: testosterone-induced hair growth suppression; assay: Androgen-induced alopecia model, hair re-growth in shaved mice; type: in vivo, C57BL/6J mice; conditions: topical testosterone 1% in the morning, control solution in the afternoon, 20 days
Protocol: C57BL/6J mice were used in this animal model for hair loss and regrowth (Uno et al. (1990) J. Cutaneous Aging & Cosm. Derm., 1: 193, which is incorporated by reference in its entirety herein). Six-week-old male mice (6 to 7 animals per group) were shaved with an electric clipper, and then treated with a hair-removal cream for 1 to 2 minutes. […] One day after hair removal, a first group of animals each received 100 microliters of a 1% testosterone solution in ethanol, applied topically to the shaved area, once each morning for twenty consecutive days. A second group of animals each received 100 microliters of vehicle (ethanol) alone, applied topically to the shaved area, once each morning for twenty consecutive days. The first group of mice (testosterone-treated) were divided further into a control group and a treatment group. Also beginning one day after hair removal, each mouse in the control group received 100 microliters of a control solution (60% ethanol, 20% propylene glycol, and 20% water) and each mouse in the treatment group received 100 microliters of the test compound, JC9 (0.02% in the same 60% ethanol, 20% propylene glycol, and 20% water solution), applied topically to the shaved area, once each afternoon for twenty consecutive days. Hair re-growth in the shaved areas was observed and photographed at 12, 15, 18, 21, and 24 days after beginning of the topical treatments.

For `C[C@]12CCC(=O)C[C@@H]1CC[C@@H]1[C@@H]2CC[C@]2(C)[C@@H](O)CC[C@@H]12` [DHT, dihydrotestosterone], the “LNCaP cell growth with DHT alone” value (LNCaP cells; 1 nM DHT, 4-5 days) was “up-regulated LNCaP cell growth”.

With `CC(C)(O)C(=O)Nc1ccc([N+](=O)[O-])c(C(F)(F)F)c1` [HF, hydroxyflutamide] the “cell growth (cell number) in the presence of DHT” value (LNCaP cells; 5 μM, with 1 nM DHT, 5 days) was “moderate activity to repress DHT-stimulated cell growth” and the “cell growth (cell number)” value (LNCaP cells; 5 μM, without DHT, 5-day incubation) was “dramatic growth suppressing effect, however, was not detected”.

With `C[C@]12CC[C@H]3[C@@H](CCC4=CC(=O)CC[C@@]43C)[C@@H]1CC[C@@H]2O` [testosterone, reference compound] the “hair re-growth in shaved areas” value [1] was “little or no re-growth of hair”.
